Laboratory results as given in PMC8318231, “Rate-of-Kill (RoK) assays to triage large compound sets for Chagas disease drug discovery: Application to GSK Chagas Box” (PLoS Neglected Tropical Diseases, 2021).

Test system: T. cruzi intracellular amastigotes in H9c2 cells
Assay: Rate-of-Kill (RoK) high-content imaging assay, amastigotes per cell (AM/CELL) and curve descriptors
Assay type: cell-based, Trypanosoma cruzi
Design: key to ME_24h / ME_48h / ME_72h: % reduction in parasite burden (cidal response); t50pct_MCC50 / t50pct_Cmax: unit not given here
Details: for ME_24h: 24h; for ME_48h: 48h; for ME_72h: 72h; for t50%_Cmax / tlag_Cmax / t50pct_Cmax: at Cmax; for ME_24h (%): maximum effect at 24 h; for ME_24h (%) / ME_48h (%) / ME_72h (%): RoK assay; for ME_48h (%): maximum effect at 48 h; for ME_72h (%): maximum effect at 72 h; for ME 24h (maximum effect at 24 hours, intracellular amastigotes): maximum percentage of parasite burden reduction reached by any concentration
Method in brief: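 H9c2 cardiomyocytes infected with T. cruzi trypomastigotes (MOI 8, 18 h), then compounds tested at 5 μM single shot or 11-point 1/3 dilution from 50 μM. DRAQ5-stained nuclei imaged over a time course. Amastigotes per cell normalised to infected cells at 4 h (0%) and non-infected cells (100%).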

## COc1ccc(S(=O)(=O)NCc2ccc(-c3ccc(CN(C)CCO)cc3)cc2)cc1.O=C(O)C(F)(F)F [TCMDC-143549]
Figure 5
  ME_24h: 31.0393
  ME_48h: 40.4277
  ME_72h: 76.5332
  t50pct_Cmax: 72
  tlag_Cmax: 4
  MCCE: 5.556
RoK curve descriptor
  MCC50: 16.7 µM
  MCCE: 5.6 µM
Time 4, sheet figure 4 A
  AM/CELL NORM: -7.714
Time 24, sheet figure 4 A
  AM/CELL NORM: 31.0393
Time 48, sheet figure 4 A
  AM/CELL NORM: 40.4277
Time 72, sheet figure 4 A
  AM/CELL NORM: 76.5332
  t50%_Cmax: 72.0 h
  tlag_Cmax: 4.0 h
  ME_24h (%): 31.0%
  ME_48h (%): 40.4%
  ME_72h (%): 76.5%
  ME 24h (maximum effect at 24 hours, intracellular amastigotes): 31.0393%
At MCC50
  t50%_MCC50: 72.0 h
  tlag_MCC50: 24.0 h
At MCC50, figure 5
  t50pct_MCC50: 72
  tlag_MCC50: 24
Figure 5, in µM
  MCC50: 16.6667

## O=C(N1CCc2ccccc2CC1)C1(C(=O)N2CCC(n3c(=O)[nH]c4ncccc43)CC2)CC1.O=C(O)C(F)(F)F [TCMDC-143381]
Figure 5
  ME_24h: -241.612
  ME_48h: -106.513
  ME_72h: 38.7809
  t50pct_Cmax: 72
  tlag_Cmax: 24
  MCC50: 50 µM
  MCCE: 1.852
RoK curve descriptor
  MCCE: 1.9 µM
Time 4, sheet figure 4 A
  AM/CELL NORM: 8.613
Time 24, sheet figure 4 A
  AM/CELL NORM: -274.305
Time 48, sheet figure 4 A
  AM/CELL NORM: -155.332
Time 72, sheet figure 4 A
  AM/CELL NORM: 34.067
  tlag_Cmax: 24.0 h
  ME_24h (%): -241.6%
  ME_48h (%): -106.5%
  ME_72h (%): 38.8%
  ME 24h (maximum effect at 24 hours, intracellular amastigotes): -241.612%
At MCC50, figure 5
  t50pct_MCC50: 72
  tlag_MCC50: 72

## Cc1sc(C)c(C(F)(F)F)c1CNCCCNc1cc(=O)c2ccccc2[nH]1.Cl [TCMDC-140766]
  ME (maximum effect) in RoK assay (in words): high ME at 24 hours and 72 hours
  tlag (in words): short tlag times
  t50%_Cmax: 24.0 h
  tlag_Cmax: 4.0 h
  ME_24h (%): 54.6%
  ME_48h (%): 64.2%
  ME_72h (%): 71.6%
  ME 24h (maximum effect at 24 hours, intracellular amastigotes): 58.2122%
Figure 5
  ME_24h: 54.6006
  ME_48h: 64.1651
  ME_72h: 71.5778
  t50pct_Cmax: 24
  tlag_Cmax: 4
  MCCE: 0.6173
RoK curve descriptor
  MCC50: 5.6 µM
  MCCE: 0.6 µM
Time 4, figure 4 A
  AM/CELL NORM: 7.643
Time 24, figure 4 A
  AM/CELL NORM: 58.2122
Time 48, figure 4 A
  AM/CELL NORM: 67.454
Time 72, figure 4 A
  AM/CELL NORM: 69.5653
At MCC50
  t50%_MCC50: 72.0 h
  tlag_MCC50: 4.0 h
At MCC50, figure 5
  t50pct_MCC50: 72
  tlag_MCC50: 4
Figure 5, in µM
  MCC50: 5.556

## Cc1c(C(C)NC(=O)Nc2cccc(Cl)c2)sc2ncnn12 (stereo not shown) [TCMDC-143405]
Figure 5
  ME_24h: -289.196
  ME_48h: -32.4517
  ME_72h: 41.1216
  t50pct_Cmax: 72
  tlag_Cmax: 24
  MCC50: 50 µM
  MCCE: 0.06859
RoK curve descriptor
  MCCE: 0.07 µM
Time 4, sheet figure 4 A
  AM/CELL NORM: -4.394
Time 24, sheet figure 4 A
  AM/CELL NORM: -289.196
Time 48, sheet figure 4 A
  AM/CELL NORM: -32.4517
Time 72, sheet figure 4 A
  AM/CELL NORM: -0.1706
  tlag_Cmax: 24.0 h
  ME_24h (%): -289.2%
  ME_48h (%): -32.5%
  ME_72h (%): 41.1%
  ME 24h (maximum effect at 24 hours, intracellular amastigotes): -289.196%
At MCC50, figure 5
  t50pct_MCC50: 72
  tlag_MCC50: 72

## O=c1[nH]ccc2ccc(-c3ccncc3)cc12 [TCMDC-143631]
Figure 5
  ME_24h: -43.2523
  ME_48h: -170.763
  ME_72h: 18.409
  t50pct_Cmax: 72
  tlag_Cmax: 48
  MCC50: 50 µM
  MCCE: 0.6173
RoK curve descriptor
  MCCE: 0.6 µM
Time 4, sheet figure 4 A
  AM/CELL NORM: -16.1027
Time 24, sheet figure 4 A
  AM/CELL NORM: -43.2523
Time 48, sheet figure 4 A
  AM/CELL NORM: -202.655
Time 72, sheet figure 4 A
  AM/CELL NORM: 18.409
  tlag_Cmax: 48.0 h
  ME_24h (%): -43.3%
  ME_48h (%): -170.8%
  ME_72h (%): 18.4%
  ME 24h (maximum effect at 24 hours, intracellular amastigotes): -43.2523%
At MCC50, figure 5
  t50pct_MCC50: 72
  tlag_MCC50: 72

## CN(C)CCOc1ccc(N2CCN(S(=O)(=O)c3ccc(Cl)cc3)CC2)cc1 [TCMDC-143622]
Figure 5
  ME_24h: 11.982
  ME_48h: 63.0909
  ME_72h: 72.2951
  t50pct_Cmax: 48
  tlag_Cmax: 4
  MCCE: 1.852
RoK curve descriptor
  MCC50: 1.9 µM
  MCCE: 1.9 µM
Time 4, sheet figure 4 A
  AM/CELL NORM: 6.264
Time 24, sheet figure 4 A
  AM/CELL NORM: 11.982
Time 48, sheet figure 4 A
  AM/CELL NORM: 63.0909
Time 72, sheet figure 4 A
  AM/CELL NORM: 55.0876
  t50%_Cmax: 48.0 h
  tlag_Cmax: 4.0 h
  ME_24h (%): 12.0%
  ME_48h (%): 63.1%
  ME_72h (%): 72.3%
  ME 24h (maximum effect at 24 hours, intracellular amastigotes): 11.982%
At MCC50
  t50%_MCC50: 72.0 h
  tlag_MCC50: 24.0 h
At MCC50, figure 5
  t50pct_MCC50: 72
  tlag_MCC50: 24
Figure 5, in µM
  MCC50: 1.852

## CN(C)Cc1ccc(N2CCC(NS(=O)(=O)c3ccc(Cl)cc3)CC2)cc1 [TCMDC-143623]
  ME (maximum effect) in RoK assay (in words): positive ME throughout all times
  cidality in the RoK assay (in words): cidal
  tlag (in words): short tlag times
  t50%_Cmax: 60.0 h
  tlag_Cmax: 38.0 h
  ME_24h (%): -87.8%
  ME_48h (%): -504.7%
  ME_72h (%): -765.0%
  ME 24h (maximum effect at 24 hours, intracellular amastigotes): 25.2228%
Figure 5
  ME_24h: -87.7558
  ME_48h: -504.665
  ME_72h: -765.031
  t50pct_Cmax: 60
  tlag_Cmax: 38
  MCCE: 1.029
RoK curve descriptor
  MCC50: 1.9 µM
  MCCE: 1.0 µM
Time 4, figure 4 A
  AM/CELL NORM: -0.7307
Time 24, figure 4 A
  AM/CELL NORM: -44.6697
Time 48, figure 4 A
  AM/CELL NORM: 60.0074
Time 72, figure 4 A
  AM/CELL NORM: 92.6225
At MCC50
  t50%_MCC50: 72.0 h
  tlag_MCC50: 24.0 h
At MCC50, figure 5
  t50pct_MCC50: 72
  tlag_MCC50: 48
Figure 5, in µM
  MCC50: 25.9259

## CC(C)(C)C(Cn1ccnc1)NC(=O)c1ccc2nc(C3CC3)oc2c1 (stereo not shown) [TCMDC-143336]
Figure 5
  ME_24h: -64.3403
  ME_48h: -179.917
  ME_72h: -53.9696
  t50pct_Cmax: 72
  tlag_Cmax: 48
  MCC50: 50 µM
  MCCE: 0.2058
RoK curve descriptor
  MCCE: 0.2 µM
Time 4, sheet figure 4 A
  AM/CELL NORM: 3.062
Time 24, sheet figure 4 A
  AM/CELL NORM: -93.0977
Time 48, sheet figure 4 A
  AM/CELL NORM: -442.656
Time 72, sheet figure 4 A
  AM/CELL NORM: -139.753
  tlag_Cmax: 48.0 h
  ME_24h (%): -64.3%
  ME_48h (%): -179.9%
  ME_72h (%): -54.0%
  ME 24h (maximum effect at 24 hours, intracellular amastigotes): -64.3403%
At MCC50, figure 5
  t50pct_MCC50: 72
  tlag_MCC50: 72

## O=C(C1CCCCC1)N1CCN(c2nnc(-c3ccccc3)c3ccccc23)CC1 [TCMDC-143511]
Figure 5
  ME_24h: -40.3218
  ME_48h: 29.1145
  ME_72h: 87.9479
  t50pct_Cmax: 72
  tlag_Cmax: 24
  MCCE: 1.852
RoK curve descriptor
  MCC50: 5.6 µM
  MCCE: 1.9 µM
Time 4, sheet figure 4 A
  AM/CELL NORM: -0.05415
Time 24, sheet figure 4 A
  AM/CELL NORM: -40.3218
Time 48, sheet figure 4 A
  AM/CELL NORM: 2.791
Time 72, sheet figure 4 A
  AM/CELL NORM: 87.9479
  t50%_Cmax: 72.0 h
  tlag_Cmax: 24.0 h
  ME_24h (%): -40.3%
  ME_48h (%): 29.1%
  ME_72h (%): 88.0%
  ME 24h (maximum effect at 24 hours, intracellular amastigotes): -40.3218%
At MCC50
  t50%_MCC50: 72.0 h
  tlag_MCC50: 24.0 h
At MCC50, figure 5
  t50pct_MCC50: 72
  tlag_MCC50: 24
Figure 5, in µM
  MCC50: 5.556

## COc1ccccc1-c1c(C)[nH]c2nc(N)nc(C)c12 [TCMDC-143610]
  ME (maximum effect) in RoK assay (in words): high values in ME at the different times
  tlag (in words): short tlag
  t50%_Cmax: 48.0 h
  tlag_Cmax: 4.0 h
  ME_24h (%): 44.7%
  ME_48h (%): 65.4%
  ME_72h (%): 70.3%
  ME 24h (maximum effect at 24 hours, intracellular amastigotes): 71.8108%
Figure 5
  ME_24h: 50.657
  ME_48h: 69.1206
  ME_72h: 72.4769
  t50pct_Cmax: 54
  tlag_Cmax: 4
  MCCE: 0.3086
RoK curve descriptor
  MCC50: 2.4 µM
  MCCE: 0.3 µM
Time 4, sheet figure 4 A
  AM/CELL NORM: 4.093
Time 24, sheet figure 4 A
  AM/CELL NORM: 33.8882
Time 48, sheet figure 4 A
  AM/CELL NORM: 64.2982
Time 72, sheet figure 4 A
  AM/CELL NORM: 71.534
At MCC50
  t50%_MCC50: 52.8 h
  tlag_MCC50: 4.0 h
At MCC50, figure 5
  t50pct_MCC50: 48
  tlag_MCC50: 4
Figure 5, in µM
  MCC50: 1.543

## O=C(NCCc1ccccn1)C(c1cn[nH]c1)N1CCN(c2ccc(Cl)c(Cl)c2)CC1 (stereo not shown) [TCMDC-143411]
Figure 5
  ME_24h: -24.7459
  ME_48h: 74.9666
  ME_72h: 99.2836
  t50pct_Cmax: 48
  tlag_Cmax: 24
  MCCE: 0.2058
RoK curve descriptor
  MCC50: 16.7 µM
  MCCE: 0.2 µM
Time 4, sheet figure 4 A
  AM/CELL NORM: 6.745
Time 24, sheet figure 4 A
  AM/CELL NORM: -24.7459
Time 48, sheet figure 4 A
  AM/CELL NORM: 74.9666
Time 72, sheet figure 4 A
  AM/CELL NORM: 99.2836
  t50%_Cmax: 48.0 h
  tlag_Cmax: 24.0 h
  ME_24h (%): -24.8%
  ME_48h (%): 75.0%
  ME_72h (%): 99.3%
  ME 24h (maximum effect at 24 hours, intracellular amastigotes): -24.7459%
At MCC50
  t50%_MCC50: 72.0 h
  tlag_MCC50: 24.0 h
At MCC50, figure 5
  t50pct_MCC50: 72
  tlag_MCC50: 24
Figure 5, in µM
  MCC50: 16.6667
